Laboratory results from article PMC11323271 (Journal of Chemical Information and Modeling, 2024).
In brackets after ≈: the same amount, converted by molar mass. Entries after “also recorded” stand apart in the source; their conditions may differ.

Experiments:
M. tuberculosis H37Ra [1] = test: microbe, parasite or virus in culture; format: cell-based, Mycobacterium tuberculosis; details: for MIC: Mycobacterium tuberculosis, H37RA, 168 h, read-out: MIC against M. tuberculosis H37Ra
M. tuberculosis H37Rv = details: cited from earlier work
[2] = target: M. tuberculosis DNA gyrase holoenzyme (GyrB ATPase activity) (Mycobacterium tuberculosis, UniProt P9WG45); test: biochemical; details: for IC50 for inhibition of M. tuberculosis DNA gyrase ATPase activity / IC50: triplicate, at least 11 inhibitor concentrations; for IC50: read-out: IC50 for inhibition of M. tuberculosis DNA gyrase ATPase activity
M. tuberculosis H37Ra [3] = details: previous virtual screening work; cited from earlier work
Caco-2 cells = test: In vitro cytotoxicity, MTT assay; format: cell-based
Description: Caco-2 cells (ATCC no. HTB-37) were used for cytotoxicity testing of selected compounds as described in our previous work.[32] Cell viability of tested compounds on Caco-2 cells was determined using 3-(4,5-dimethylthiazol-2-yl)-2,5-diphenyltetrazolium bromide (MTT) following a modified assay procedure.[52] Absorbance was measured at 590 nm using a microplate reader (Infinite M200 PRO, Tecan Group Ltd., Switzerland). The experiment was performed in triplicate and compound concentrations at which cells retained a viability of more than 80% were considered as nontoxic to cells.[53]
Figure S1. Hit compound cytotoxicity against Caco-2 cells. Cells were incubated with different concentrations of compounds (1 (A), 2 (B), 3 (C), 8 (D), 11 (E), 14 (F), G24 (G), and G26 (H)) for 24 h and viability measured by MTT assay. Data are presented as the mean ± SD (n = 6). The yellow bars represent the maximum concentrations at which compounds are non-cytotoxic towards Caco-2 cells.
(1 picture or pasted object on this page, not shown here)

M. tuberculosis = details: cited from earlier work

Sequence of M. tuberculosis DNA gyrase holoenzyme (GyrB ATPase activity) (P9WG45 whole entry, looked up): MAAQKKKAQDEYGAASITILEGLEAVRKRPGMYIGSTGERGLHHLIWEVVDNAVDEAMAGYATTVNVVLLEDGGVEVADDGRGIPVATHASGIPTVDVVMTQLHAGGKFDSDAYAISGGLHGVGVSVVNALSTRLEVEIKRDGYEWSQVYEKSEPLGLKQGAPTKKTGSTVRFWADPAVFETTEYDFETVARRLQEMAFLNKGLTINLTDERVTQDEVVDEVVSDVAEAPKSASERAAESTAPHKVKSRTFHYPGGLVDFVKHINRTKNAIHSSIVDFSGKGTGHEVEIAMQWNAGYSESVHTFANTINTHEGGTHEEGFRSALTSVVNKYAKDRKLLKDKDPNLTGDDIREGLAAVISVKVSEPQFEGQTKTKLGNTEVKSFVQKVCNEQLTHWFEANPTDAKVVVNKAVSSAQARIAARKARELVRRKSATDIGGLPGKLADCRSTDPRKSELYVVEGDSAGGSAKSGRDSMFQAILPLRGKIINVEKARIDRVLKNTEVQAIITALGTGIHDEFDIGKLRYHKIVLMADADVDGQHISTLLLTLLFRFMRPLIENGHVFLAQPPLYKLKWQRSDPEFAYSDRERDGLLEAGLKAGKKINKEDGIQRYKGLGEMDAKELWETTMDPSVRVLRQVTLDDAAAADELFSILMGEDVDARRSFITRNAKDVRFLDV

Structure (SMILES) | MIC (M. tuberculosis H37Ra [1]) | IC50 [2] | maximum non-cytotoxic concentration toward Caco-2 cells (Caco-2 cells; human, Caco-2, 24 h) | also measured
Cc1ccc(NCC(O)Cn2c3ccccc3c3ccccc32)cc1Cl (stereo not shown) [Compound 4] | > 100 µg/mL |  |  | 
COc1ccc(CCNCC(O)Cn2c3ccccc3c3ccccc32)cc1OC (stereo not shown) [AF-399/41048884] |  |  |  | IC50 (M. tuberculosis H37Rv): 10600 nM
OC(CN1CCOCC1)Cn1c(-c2ccccc2)c(-c2ccccc2)c2ccc3ccccc3c21 (stereo not shown) [Compound 9] | 12.5 µg/mL (≈ 27 µM) |  |  | IC50 for inhibition of M. tuberculosis DNA gyrase ATPase activity [2]: inactive; also recorded: absence of observable ATPase inhibition
CO[C@@H]1[C@@H](OC(N)=O)[C@@H](O)[C@H](Oc2ccc3c(O)c(NC(=O)c4ccc(O)c(CC=C(C)C)c4)c(=O)oc3c2C)OC1(C)C [Novobiocin, reference compound] | > 100 µg/mL |  |  | MIC against M. tuberculosis (previous work) (M. tuberculosis H37Ra [3]): exceeding 100 μg/mL; MIC against M. tuberculosis H37Ra (M. tuberculosis H37Ra [1]): > 100 µg/mL
CCc1ccc(NCC(O)Cn2c3ccccc3c3ccccc32)cc1 (stereo not shown) [Compound 6] | > 100 µg/mL |  |  | 
OC(CNCCOc1ccccc1)Cn1c2ccccc2c2ccccc21 (stereo not shown) [Compound 2] | 6.2 µg/mL (≈ 17.2 µM) | 1340 nM | 12.5 µg/mL | 
OC(CNCc1ccccc1)Cn1c2ccccc2c2ccccc21 (stereo not shown) [Compound 3] | 12.5 µg/mL (≈ 37.8 µM) | 3820 nM |  | maximum non-cytotoxic concentration toward Caco-2 cells (Caco-2 cells; 24 h, MTT, viability of more than 80% considered nontoxic): 12.5 µg/mL
OC(CN1CCN(c2ccccn2)CC1)Cn1c2ccccc2c2ccccc21 (stereo not shown) [AG-690/11353646] |  |  |  | IC50 (M. tuberculosis): 36100 nM
Cc1ccc2c(c1)c(-c1ccccc1)c(-c1ccccc1)n2CC(O)CN(CCO)CCO (stereo not shown) [G24, reference compound] | 12.5 µg/mL (≈ 28.1 µM) | 2690 nM | 25 µg/mL | MIC against M. tuberculosis (previous work) (M. tuberculosis H37Ra [3]): 12.5 µg/mL (≈ 28.1 µM); maximum non-cytotoxic concentration, fold higher than for G26 (Caco-2 cells; human, 24 h): 15 fold
Cc1ccc(NCC(O)Cn2c3ccccc3c3ccccc32)cc1 (stereo not shown) [Compound 7] | > 100 µg/mL |  |  | 
OCCNCC(O)Cn1c(-c2ccccc2)c(-c2ccccc2)c2ccc3ccccc3c21 (stereo not shown) [Compound 11] | 3.1 µg/mL (≈ 7.1 µM) | 560 nM | 0.87 µg/mL | IC50 fold better than novobiocin [2]: 2 fold
Cc1ccc2c(c1)c(-c1ccccc1)c(-c1ccccc1)n2CC(O)CNC(CO)(CO)CO (stereo not shown) [Compound 14] | 6.2 µg/mL (≈ 13.5 µM) | 80 nM | 12.5 µg/mL | IC50 fold better than novobiocin [2]: 16 fold
OC(CNCCC1C=Nc2ccccc21)Cn1c2ccccc2c2ccccc21 (stereo not shown) [Compound 1] | 6.2 µg/mL (≈ 16.2 µM) | 730 nM | 25.0 µg/mL | 
Cc1ccc2c(c1)c(-c1ccccc1)c(-c1ccccc1)n2CC(O)CN1CCOCC1 (stereo not shown) [Compound 13] | 12.5 µg/mL (≈ 29.3 µM) |  |  | IC50 for inhibition of M. tuberculosis DNA gyrase ATPase activity [2]: inactive; also recorded: absence of observable ATPase inhibition
CCn1c2ccccc2c2cc(CNCCNCC(C)O)ccc21 (stereo not shown) [Compound 8] | 25 µg/mL (≈ 76.8 µM) | 260 nM | 12.5 µg/mL | ATPase inhibition, fold more effective than carbazole derivative 1 [2]: approximately 3 fold; ATPase inhibition, fold more effective than carbazole derivative 2 [2]: ~5 fold; ATPase inhibition, fold more effective than carbazole derivative 3 [2]: ~15 fold; IC50 fold better than novobiocin [2]: 5 fold
OC(CNCc1ccco1)Cn1c(-c2ccccc2)c(-c2ccccc2)c2ccc3ccccc3c21 (stereo not shown) [Compound 10] | 3.1 µg/mL (≈ 6.56 µM) |  |  | IC50 for inhibition of M. tuberculosis DNA gyrase ATPase activity [2]: inactive; also recorded: absence of observable ATPase inhibition
Cc1cc(C)c2c(c1)c(-c1ccccc1)c(-c1ccccc1)n2CC(O)CN1CCOCC1 (stereo not shown) [Compound 12] | 12.5 µg/mL (≈ 28.4 µM) |  |  | IC50 for inhibition of M. tuberculosis DNA gyrase ATPase activity [2]: inactive; also recorded: absence of observable ATPase inhibition
O=C(NNCC(O)Cn1c2ccccc2c2ccccc21)c1ccccc1 (stereo not shown) [Compound 5] | > 100 µg/mL |  |  | 
